Reference: patent US20200030278A1, “PHARMACEUTICAL COMPOSITIONS OF METAP-2 INHIBITORS” (Zafgen, Inc., priority 2017, published 2020)
Values after ≈ are worked out from the molar mass of the structure shown. Like-named read-outs stand apart in the source and are kept apart here.

Experiments:
[1] = logD7.4 (physicochemical properties); conditions: pH 7.4
[2] = pKa (physicochemical properties)
Solubility (pH 7) = format: physicochemical; conditions: pH 7, aqueous buffer
[3] = Pharmacokinetics after intravenous administration in rats; conditions: in vivo, Rat, IV Bolus, 3 mg/kg
Method: (§1) Animal experiments were performed in accordance with the Guide for the Care and Use of Laboratory Animals as adopted and promulgated by the U.S. National Institutes of Health or local equivalent and were approved by the Institution's Animal Care and Use Committee or local equivalent. Unless described otherwise, animals (mouse, rat, and dog studies) were maintained under standard conditions (12-hour light/dark cycle and approximately 21±4° C. and 55±15% relative humidity), and food (Rodent pellet chow [Research Diets, Brunswick N.J., or similar] or canine pellet [Certified Dog Diet 2021C, Harlan Teklad Diets, Madison, Wis.] or canned [i.e., Cesar® Mars Petcare, Victoria, Australia]) and water were available ad libitum. Unless described otherwise, drug formulations were administered s.c. daily (efficacy studies) or every 3 days (Q3D; safety studies).

[4] = Pharmacokinetics after intravenous administration in dogs; conditions: in vivo, Dog, IV Bolus, 0.142 mg/kg
Method: as §1

[5] = Pharmacokinetics after subcutaneous administration in humans; format: in vivo, Human; conditions: Human, SC, 2 mg
Source text: (§2) Assessment of differences in pharmacokinetics following subcutaneous administration reflect both differences in the pharmacokinetic properties of the compounds and differences in pharmaceutical factors that affect absorption of the formulations from the injection sites.

[6] = Pharmacokinetics after subcutaneous administration in rats; format: in vivo; conditions: plasma; Rat, SC, 6 mg/kg
Method: as §1, §2

[7] = Pharmacokinetics after subcutaneous administration in dogs; format: in vivo; conditions: beagle, plasma, Dog, SC, 0.6 mg/kg
Method: as §1, §2

[8] = Pharmacokinetics after subcutaneous administration in rabbits; format: in vivo, Rabbit
Source text: as §2

[9] = Protein binding in rat plasma (dialysis); format: in vitro ADME; conditions: Rat Plasma, read-out: % Bound (Mean) (converted)
[10] = Protein binding in dog plasma (dialysis); format: in vitro ADME; conditions: Dog Plasma, read-out: % Bound (Mean) (converted)
[11] = Protein binding in mouse plasma (dialysis); format: in vitro ADME; conditions: read-out: % Bound (Mean) (converted)
[12] = Protein binding in human plasma (dialysis); format: in vitro ADME; conditions: Human Plasma, 120 nM; read-out: % Bound (Mean) (converted)
[13] = Duration of plasma exposure after subcutaneous dosing, summary over species; format: in vivo, rat, dog, rabbit, human
[14] = Toxicology study in the rat, s.c. Q3D for 28 days; format: in vivo, Sprague Dawley rats; conditions: for NOAEL at 28 days / Cmax / AUC(0-t): Sprague Dawley, rat, in vivo, sc; for NOAEL at 28 days / Mortality/early euthanasia: s.c. Q3D, 4 weeks; for AUC(0-t): read-out: AUC0-t at NOAEL; for Mortality/early euthanasia: rats
Method: Male and female Sprague Dawley rats 9-10 weeks of age (Envigo RMS, Inc., Indianapolis, Ind. or Orient Bio Inc., Gyeonggi-do, South Korea) were individually housed at the testing facility. […] Animals were allocated to treatment groups based on body weight, and body weight and food consumption were recorded weekly. […] At necropsy, macroscopic pathologic findings were recorded, sperm motility and morphology were determined, selected organs were weighed, and selected tissues were collected for microscopic examination.

[15] = Hepatocyte incubation, metabolic profile, rat; format: in vitro ADME
[16] = Hepatocyte incubation, metabolic profile, dog; format: in vitro ADME
[17] = Hepatocyte incubation, metabolic profile, human; format: in vitro ADME
[18] = Pharmacokinetic study in dogs, single s.c. injection (Example 3); conditions: both, beagle, dog, plasma, sc, 0.6 mg/kg
Method: Male and female beagle dogs of 9 to 11 months of age for PK characterization were individually housed at the testing facility Approximately 325 g of pelleted food was provided daily. […] Animals were observed twice daily for signs of ill health, morbidity, mortality, injury, and viability, and detailed clinical observations were conducted daily (including urine/fecal examination and hands-on examination). Food was weighed daily, and body weights were recorded at least weekly.
Samples were collected in tubes containing lithium heparin and processed for plasma by centrifugation (10 minutes at 3000 rpm). Supernatant was removed and stored frozen (−70° C.) until processed (BASi, West Lafayette, Ind.). Plasma drug concentration data were used to calculate PK parameters for individual concentration data using noncompartmental PK methods in Watson™ version 7.3.0.01 (Thermo Fisher Scientific, Inc., Waltham, Mass.).

[19] = female, 2 mg/kg, Day 1, female rats, NOAEL 2 mg/kg
[20] = female, 2 mg/kg, Day 31, female rats, NOAEL 2 mg/kg
[21] = male, 0.6 mg/kg, Day 1, male rats, NOAEL 0.6 mg/kg
[22] = male, 0.6 mg/kg, Day 31, male rats, NOAEL 0.6 mg/kg

CO[C@@H]1[C@H](OC(=O)/C=C/c2ccc(OCCN(C)C)cc2)CC[C@]2(CO2)[C@H]1[C@@]1(C)O[C@@H]1CC=C(C)C [beloranib, reference compound]
logD7.4 [1]: 2.72
pKa [2]: 9.4
solubility (Solubility (pH 7)): 300 µg/mL (≈ 600 µM)
clearance [3]: 113 mL/min/kg
half-life [3]: 1.05 ± 0.23 h
Vd ([3]; read-out: Vdss): 5.08 ± 0.29 L/kg
clearance [4]: 33.3 mL/min/kg
half-life [4]: 2.9 ± 0.29 h
Vd ([4]; read-out: Vdss): 5.07 ± 0.23 L/kg
kel [5]: 0.0885 ± 0.0266 h⁻¹
AUC(0-inf) ([5]; plasma): 5.44 ± 1.81 ng·h/mL
half-life ([5]; plasma): 8.44 ± 2.49 h
Cmax ([5]; plasma, read-out: Cmax): 1 ± 1.1 ng/mL
Tmax ([5]; plasma, read-out: Tmax): 1.58 ± 1.28 h
AUC(0-t) [6]: 412 ng·h/mL
Cmax [6]: 270 ng/mL
Tmax [6]: 0.5 h
half-life [6]: 1.8 h
AUC(0-t) [7]: 182 ± 73 ng·h/mL
Cmax [7]: 16.6 ± 12.3 ng/mL
Tmax [7]: 3.5 ± 1 h
half-life ([7]; N = 1): 7.84 h
AUC(0-t) ([8]; plasma, Rabbit, SC, 1 mg/kg): 222 ± 9 ng·h/mL
Cmax ([8]; plasma, Rabbit, SC, 1 mg/kg): 52 ± 4.1 ng/mL
Tmax ([8]; plasma, Rabbit, SC, 1 mg/kg): 1.7 ± 0.6 h
half-life ([8]; plasma, Rabbit, SC, 1 mg/kg): 1.7 ± 0.3 h
plasma concentration at 8 hours after dosing ([8]; rabbit, subcutaneous): still quantifiable
fraction unbound at 60 nM ([9]; 60 nM): 0.0285
fraction unbound at 120 nM ([9]; 120 nM): 0.055
fraction unbound at 240 nM ([9]; 240 nM): 0.0415
fraction unbound at 480 nM ([9]; 480 nM): 0.0326
fraction unbound at 1000 nM ([9]; 1000 nM): 0.0434
fraction unbound ([9]; All concentrations): 0.0402
fraction unbound at 480 nM ([10]; 480 nM): 0.045
fraction unbound at 1000 nM ([10]; 1000 nM): 0.059
fraction unbound at 60 nM ([11]; 60 nM): 0.0181
fraction unbound at 120 nM ([11]; 120 nM): 0.0191
fraction unbound at 240 nM ([11]; 240 nM): 0.0259
fraction unbound at 480 nM ([11]; 480 nM): 0.0222
fraction unbound at 1000 nM ([11]; 1000 nM): 0.0212
fraction unbound ([11]; All concentrations): 0.0213
fraction unbound at 120 nM [12]: 0.0544
interval between doses with plasma concentrations at background / minimal exposure ([13]; dosing once every 3 days in animals and twice a week in humans): approximately 48 hours
plasma concentration at 24 hours after dosing ([13]; subcutaneous, rat, dog, and human): quantifiable
NOAEL at 28 days ([14]; female rats, read-out: NOAEL (F)): 2 mg/kg
NOAEL at 28 days ([14]; male rats, read-out: NOAEL): 0.6 mg/kg
Cmax [14, 19]: 28.5 ng/mL
AUC(0-t) [14, 19]: 96.9 ng·h/mL
Cmax [14, 20]: 19.2 ng/mL
AUC(0-t) [14, 20]: 56.7 ng·h/mL
Cmax [14, 21]: 19.2 ng/mL
AUC(0-t) [14, 21]: 36.8 ng·h/mL
Cmax [14, 22]: 8.17 ng/mL
AUC(0-t) [14, 22]: 29 ng·h/mL
Mortality/early euthanasia [14]: mortality was noted by Days 16-24
Mortality/early euthanasia ([14]; listed as Beloranib): 4/15 males in the 6 mg/kg dose
metabolic profile / predominant pathway in hepatocytes [15]: glutathione (GSH) conjugation pathways being predominant
metabolic profile / predominant pathway in hepatocytes [16]: glutathione (GSH) conjugation pathways being predominant
metabolic profile / predominant pathway in hepatocytes [17]: glutathione (GSH) conjugation pathways being predominant
half-life [18]: 9.3 h
